From ChEMBL document CHEMBL6083271 (J Med Chem, 2024) come the findings set out here.

Molecules are shown by their SMILES. Calls of active or inactive are those of the source. The rule behind the calls is not given here.

The test system of experiment [1] is RS4-11. The experiment in a line: Antiproliferative activity against human RS4;11 cells harbouring p53 wild type assessed as inhibition of cell growth measured after 4 days by WST-8 assay. The conditions noted are these: RS4-11, 96 h. It counts as functional, cell-based. (In general: Tetrazolium assays rely on reduction of a dye to a coloured formazan, in cell work by metabolically active cells.)

The subject of experiment [2] is RS4-11. The experiment in a line: Antiproliferative activity against human RS4;11 cells harbouring p53 mutant assessed as inhibition of cell growth measured after 4 days by WST-8 assay. It counts as functional, cell-based. The note with it: RS4-11, 96 h.
In experiment [3] the test system is RS4-11. The experiment in a line: Antiproliferative activity against human RS4;11 cells assessed as inhibition of cell growth measured after 4 days by WST-8 assay. Format: functional, cell-based.
Experiment [4] deals with RS4-11. The experiment in a line: Antitumor activity against human RS4;11 cells xenografted in SCID mouse model assessed as tumor regression at 50 mg/kg, iv qd administered every other for 2 weeks by caliper method. Format: functional, organism-based. On the technique in general: A xenograft is tissue or cells of one species grown in another, often human tumour cells in immunodeficient mice.

Experiment [5] relates to RS4-11. The experiment in a line: Upregulation of p53 level in human RS4;11 cells harbouring wild type p53 at 10 to 300 nM measured after 2 hrs by Western blot analysis. Format: functional, cell-based. The note with it: dose 10-300 nM.
For experiment [6], the system named is RS4-11. The experiment in a line: Downregulation of MDM2 level in human RS4;11 cells harbouring wild type p53 at 10 to 300 nM measured after 2 hrs by Western blot analysis. It counts as functional, cell-based. The note with it: dose 10-300 nM.
Experiment [7] has as its target Protein cereblon/Eukaryotic peptide chain release factor GTP-binding subunit ERF3A (Homo sapiens) (UniProt Q96SW2+P15170). The experiment in a line: PROTAC activity at CRBN/GSPT1 in human RS4;11 cells assessed as induction of GSPT1 degradation at 10 to 1000 nM measured after 4 hrs by Western blot analysis. Format: cell-based. The conditions noted are these: dose 10-1000 nM. (In general: In western blotting, separated proteins are transferred to a membrane and probed.)

Chain of Protein cereblon/Eukaryotic peptide chain release factor GTP-binding subunit ERF3A (Homo sapiens) (P15170 whole entry, looked up): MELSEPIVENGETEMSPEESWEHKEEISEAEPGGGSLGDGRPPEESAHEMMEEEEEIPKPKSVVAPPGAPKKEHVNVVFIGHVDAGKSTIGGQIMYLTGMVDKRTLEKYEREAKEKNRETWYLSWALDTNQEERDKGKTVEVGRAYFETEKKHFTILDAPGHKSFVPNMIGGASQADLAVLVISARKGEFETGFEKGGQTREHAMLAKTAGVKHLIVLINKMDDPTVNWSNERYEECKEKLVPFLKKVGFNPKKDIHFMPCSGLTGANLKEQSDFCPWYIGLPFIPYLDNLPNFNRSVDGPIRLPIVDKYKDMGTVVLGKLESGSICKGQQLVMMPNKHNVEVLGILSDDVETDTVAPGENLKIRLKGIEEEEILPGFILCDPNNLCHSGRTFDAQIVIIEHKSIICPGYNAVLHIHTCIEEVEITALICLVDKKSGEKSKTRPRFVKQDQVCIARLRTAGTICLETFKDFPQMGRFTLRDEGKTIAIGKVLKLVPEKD
Chain of Protein cereblon/Eukaryotic peptide chain release factor GTP-binding subunit ERF3A (Homo sapiens) (Q96SW2 whole entry, looked up): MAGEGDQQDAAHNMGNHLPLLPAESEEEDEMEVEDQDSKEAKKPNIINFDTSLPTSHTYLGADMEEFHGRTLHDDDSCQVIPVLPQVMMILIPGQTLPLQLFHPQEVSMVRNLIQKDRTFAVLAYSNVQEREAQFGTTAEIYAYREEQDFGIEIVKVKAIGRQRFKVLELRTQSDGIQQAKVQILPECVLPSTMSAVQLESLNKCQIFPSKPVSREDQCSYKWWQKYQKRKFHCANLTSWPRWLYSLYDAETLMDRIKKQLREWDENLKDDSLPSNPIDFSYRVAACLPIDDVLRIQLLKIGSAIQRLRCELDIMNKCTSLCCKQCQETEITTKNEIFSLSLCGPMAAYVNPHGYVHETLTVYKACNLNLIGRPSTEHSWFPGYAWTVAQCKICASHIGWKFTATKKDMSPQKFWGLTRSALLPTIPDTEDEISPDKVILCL

Regarding `O=C1CCC(N2Cc3c(NC4CN(CCNC(=O)c5ccc(NC(=O)[C@@H]6NC7(CCCCC7)[C@@]7(C(=O)Nc8cc(Cl)ccc87)[C@H]6c6cccc(Cl)c6F)cc5)C4)cccc3C2=O)C(=O)N1` (some centres not stated), the IC50 was 50 nM in the experiment with RS4-11 [1] and > 1000 nM with RS4-11 [2].
The corresponding values for `O=C1CCC(N2Cc3c(NCC4CCN(C(=O)c5ccc(NC(=O)[C@@H]6NC7(CCCCC7)[C@@]7(C(=O)Nc8cc(Cl)ccc87)[C@H]6c6cccc(Cl)c6F)cc5)CC4)cccc3C2=O)C(=O)N1` (some centres not stated) are 19 nM and > 1000 nM.
Take `O=C1CCC(N2Cc3c(C#CCCCNC(=O)[C@H]4CC[C@H](NC(=O)[C@@H]5NC6(CCCCC6)[C@@]6(C(=O)Nc7cc(Cl)ccc76)[C@H]5c5cccc(Cl)c5F)CC4)cccc3C2=O)C(=O)N1` (some centres not stated): the IC50 in the experiment on RS4-11 [1] is 0.9 nM; with RS4-11 [3] (RS4-11, 96 h) it was 1 nM; in the experiment with RS4-11 [2], > 1000 nM. Besides, the result in the experiment on RS4-11 [4] was Active.
For the compound `O=C1CCC(N2Cc3c(C#CCCCNC(=O)c4ccc(NC(=O)[C@@H]5NC6(CCCCC6)[C@@]6(C(=O)Nc7cc(Cl)ccc76)[C@H]5c5cccc(Cl)c5F)cc4F)cccc3C2=O)C(=O)N1` (some centres not stated), the IC50 is 3 nM in the experiment with RS4-11 [1] and > 1000 nM with RS4-11 [2].
As to `O=C(O)c1ccc(NC(=O)[C@@H]2NC3(CCCCC3)[C@@]3(C(=O)Nc4cc(Cl)ccc43)[C@H]2c2cccc(Cl)c2F)cc1`, the outcome in the experiment on RS4-11 [5] was Active. The result in the experiment on RS4-11 [6] was inactive.
Regarding `O=C1CCC(N2Cc3c(C#CCCCNC(=O)C4CCN(C(=O)[C@@H]5NC6(CCCCC6)[C@@]6(C(=O)Nc7cc(Cl)ccc76)C5c5cccc(Cl)c5F)CC4)cccc3C2=O)C(=O)N1` (single isomer, unassigned), the 50% inhibitory concentration (IC50) in the experiment with RS4-11 [1] and with RS4-11 [2] was > 1000 nM each time.
Regarding `COc1cc(NC(=O)[C@@H]2NC3(CCCCC3)[C@@]3(C(=O)Nc4cc(Cl)ccc43)[C@H]2c2cccc(Cl)c2F)ccc1C(=O)NCCCC#Cc1cccc2c1CN(C1CCC(=O)NC1=O)C2=O` (some centres not stated), the figures for the IC50 in the experiment on RS4-11 [1] and in the experiment on RS4-11 [2] were 4 nM and > 1000 nM, respectively.
In the case of `O=C1CCC(N2Cc3c(C#CCCCCN4CCC(NC(=O)C5CCC(NC(=O)[C@@H]6NC7(CCCCC7)[C@@]7(C(=O)Nc8cc(Cl)ccc87)[C@H]6c6cccc(Cl)c6F)CC5)CC4)cccc3C2=O)C(=O)N1` (some centres not stated), the IC50 in the experiment with RS4-11 [1] and with RS4-11 [2] was > 1000 nM in each case.
Take `O=C1CCC(N2Cc3c(NC4CN(C(=O)c5ccc(NC(=O)[C@@H]6NC7(CCCCC7)[C@@]7(C(=O)Nc8cc(Cl)ccc87)[C@H]6c6cccc(Cl)c6F)cc5)C4)cccc3C2=O)C(=O)N1` (some centres not stated): the figures for the IC50 in the experiment with RS4-11 [1] and in the experiment with RS4-11 [2] were 37 nM and > 1000 nM, respectively.
In the case of `O=C1CCC(N2Cc3c(C#CCCCNC(=O)c4cccc(NC(=O)[C@@H]5NC6(CCCCC6)[C@@]6(C(=O)Nc7cc(Cl)ccc76)[C@H]5c5cccc(Cl)c5F)c4)cccc3C2=O)C(=O)N1` (some centres not stated), the IC50 in the experiment on RS4-11 [1] and with RS4-11 [2] was 3 nM in each case. In experiment [7], the result was Active.
For `O=C1CCC(N2Cc3c(C#CCCCNC(=O)C45CC(NC(=O)[C@@H]6NC7(CCCCC7)[C@@]7(C(=O)Nc8cc(Cl)ccc87)[C@H]6c6cccc(Cl)c6F)(C4)C5)cccc3C2=O)C(=O)N1` (some centres not stated), the IC50 in the experiment with RS4-11 [1] is 3 nM; in the experiment with RS4-11 [2], 7 nM.
In the case of `O=C1CCC(N2Cc3c(C#C[C@H]4CC[C@H](NC(=O)c5ccc(NC(=O)[C@@H]6NC7(CCCCC7)[C@@]7(C(=O)Nc8cc(Cl)ccc87)[C@H]6c6cccc(Cl)c6F)cc5)CC4)cccc3C2=O)C(=O)N1` (some centres not stated), the IC50 with RS4-11 [1] is 200 nM; in the experiment with RS4-11 [2], > 1000 nM.
On to `O=C1CCC(N2Cc3c(CCc4cn(CCCNC(=O)c5ccc(NC(=O)[C@@H]6NC7(CCCCC7)[C@@]7(C(=O)Nc8cc(Cl)ccc87)[C@H]6c6cccc(Cl)c6F)cc5)cn4)cccc3C2=O)C(=O)N1` (some centres not stated), for which the IC50 was 7 nM in the experiment on RS4-11 [1] and > 1000 nM in the experiment on RS4-11 [2]. Also, the Activity result in the experiment on RS4-11 [4] was “Active; Compound Showed Minimal Tumor Growth Inhibition”.
Consider `O=C1CCC(N2Cc3c(C#CCCCNC(=O)[C@H]4C[C@H](NC(=O)[C@@H]5NC6(CCCCC6)[C@@]6(C(=O)Nc7cc(Cl)ccc76)[C@H]5c5cccc(Cl)c5F)C4)cccc3C2=O)C(=O)N1` (some centres not stated), for which the 50% inhibitory concentration (IC50) with RS4-11 [1] came out at 3 nM; in the experiment with RS4-11 [2] it was 7 nM.
Turning to `O=C1CCC(N2Cc3c(C#CCCCNC(=O)c4ccc(NC(=O)[C@@H]5NC6(CCCCC6)[C@@]6(C(=O)Nc7cc(Cl)ccc76)[C@H]5c5cccc(Cl)c5F)cn4)cccc3C2=O)C(=O)N1` (some centres not stated), the results for the IC50 in the experiment on RS4-11 [1] and in the experiment with RS4-11 [2] were 7 nM and > 1000 nM, respectively.
For `O=C1CCC(N2Cc3c(NCC4CCN(CCNC(=O)c5ccc(NC(=O)[C@@H]6NC7(CCCCC7)[C@@]7(C(=O)Nc8cc(Cl)ccc87)[C@H]6c6cccc(Cl)c6F)cc5)CC4)cccc3C2=O)C(=O)N1` (some centres not stated), the IC50 in the experiment with RS4-11 [1] was 9 nM; with RS4-11 [2] it was > 1000 nM.
Take `O=C1CCC(N2Cc3c(C#CCCCNC(=O)C45CCC(NC(=O)[C@@H]6NC7(CCCCC7)[C@@]7(C(=O)Nc8cc(Cl)ccc87)[C@H]6c6cccc(Cl)c6F)(CC4)CC5)cccc3C2=O)C(=O)N1` (some centres not stated): the half-maximal inhibitory concentration (IC50) was 3 nM in the experiment on RS4-11 [1] and > 1000 nM in the experiment on RS4-11 [2].
For `O=C1CCC(N2Cc3c(NC4CCN(C(=O)c5ccc(NC(=O)[C@@H]6NC7(CCCCC7)[C@@]7(C(=O)Nc8cc(Cl)ccc87)[C@H]6c6cccc(Cl)c6F)cc5)CC4)cccc3C2=O)C(=O)N1` (some centres not stated), the IC50 with RS4-11 [1] is 19 nM; in the experiment on RS4-11 [2] it was 33 nM.
As for `COc1cc(C(=O)NCCCC#Cc2cccc3c2CN(C2CCC(=O)NC2=O)C3=O)ccc1NC(=O)[C@@H]1NC2(CCCCC2)[C@@]2(C(=O)Nc3cc(Cl)ccc32)[C@H]1c1cccc(Cl)c1F` (some centres not stated), the IC50 in the experiment on RS4-11 [1] is 8 nM; in the experiment with RS4-11 [2] it was > 1000 nM.
Regarding `O=C1CCC(N2Cc3c(NCC4CN(C(=O)c5ccc(NC(=O)[C@@H]6NC7(CCCCC7)[C@@]7(C(=O)Nc8cc(Cl)ccc87)[C@H]6c6cccc(Cl)c6F)cc5)C4)cccc3C2=O)C(=O)N1` (some centres not stated), the IC50 with RS4-11 [1] was 19 nM; with RS4-11 [2], > 1000 nM.
On to `O=C(CN1CCC(NC(=O)[C@@H]2NC3(CCCCC3)[C@@]3(C(=O)Nc4cc(Cl)ccc43)[C@H]2c2cccc(Cl)c2F)CC1)NCCCC#Cc1cccc2c1CN(C1CCC(=O)NC1=O)C2=O` (some centres not stated), for which the IC50 in the experiment with RS4-11 [1] was 5 nM; with RS4-11 [2] it was > 1000 nM. Also, in the experiment on RS4-11 [4], the outcome was inactive.
`O=C1CCC(N2Cc3c(C#CCCCNC(=O)C45CCC(NC(=O)[C@@H]6NC7(CCCCC7)[C@@]7(C(=O)Nc8cc(Cl)ccc87)[C@H]6c6cccc(Cl)c6F)(CC4)C5)cccc3C2=O)C(=O)N1` (some centres not stated): the IC50 in the experiment on RS4-11 [1] worked out at 2 nM; with RS4-11 [2], 3 nM.
On the same counts, the results for `O=C1CCC(N2Cc3c(NC4CCN(CCNC(=O)c5ccc(NC(=O)[C@@H]6NC7(CCCCC7)[C@@]7(C(=O)Nc8cc(Cl)ccc87)[C@H]6c6cccc(Cl)c6F)cc5)CC4)cccc3C2=O)C(=O)N1` (some centres not stated) are 8 nM and > 1000 nM.
As for `O=C1CCC(N2Cc3c(C#CCCCNC(=O)c4ccc(NC(=O)[C@@H]5NC6(CCCCC6)[C@@]6(C(=O)Nc7cc(Cl)ccc76)[C@H]5c5cccc(Cl)c5F)nc4)cccc3C2=O)C(=O)N1` (some centres not stated), the half-inhibitory concentration (IC50) is 2 nM with RS4-11 [1] and > 1000 nM with RS4-11 [2].
As to `O=C1CCC(N2Cc3c(C#CCCCNC(=O)c4ccc(NC(=O)[C@@H]5NC6(CCCCC6)[C@@]6(C(=O)Nc7cc(Cl)ccc76)[C@H]5c5cccc(Cl)c5F)c(F)c4)cccc3C2=O)C(=O)N1` (some centres not stated), the values for the IC50 in the experiment with RS4-11 [1] and with RS4-11 [2] were 8 nM and > 1000 nM, respectively.
In the case of `CN1C(=O)CCC(N2Cc3c(C#CC4CCN(C(=O)[C@H]5CC[C@H](NC(=O)[C@@H]6NC7(CCCCC7)[C@@]7(C(=O)Nc8cc(Cl)ccc87)[C@H]6c6cccc(Cl)c6F)CC5)CC4)cccc3C2=O)C1=O` (some centres not stated), the Activity entry in the experiment on RS4-11 [3] (time 4.0 day) is given as “Active; Compound Showed Weaker Cell Growth Inhibition”.
For `O=C1CCC(N2Cc3c(CC[C@H]4CC[C@H](NC(=O)c5ccc(NC(=O)[C@@H]6NC7(CCCCC7)[C@@]7(C(=O)Nc8cc(Cl)ccc87)[C@H]6c6cccc(Cl)c6F)cc5)CC4)cccc3C2=O)C(=O)N1` (some centres not stated), the IC50 in the experiment on RS4-11 [1] is 34 nM; with RS4-11 [2] it was > 1000 nM.
On to `O=C1CCC(N2Cc3c(CCC4CCN(C(=O)c5ccc(NC(=O)[C@@H]6NC7(CCCCC7)[C@@]7(C(=O)Nc8cc(Cl)ccc87)[C@H]6c6cccc(Cl)c6F)cc5)CC4)cccc3C2=O)C(=O)N1` (some centres not stated), for which the IC50 is 19 nM with RS4-11 [1] and > 1000 nM in the experiment with RS4-11 [2].
As for `O=C1CCC(N2Cc3c(NCC4CN(CCNC(=O)c5ccc(NC(=O)[C@@H]6NC7(CCCCC7)[C@@]7(C(=O)Nc8cc(Cl)ccc87)[C@H]6c6cccc(Cl)c6F)cc5)C4)cccc3C2=O)C(=O)N1` (some centres not stated), the results for the IC50 in the experiment with RS4-11 [1] and with RS4-11 [2] were 8 nM and > 1000 nM, respectively.

The IC50 is the midpoint of a concentration-inhibition curve.
